Laboratory results: ChEMBL document CHEMBL6153174, “Design and Synthesis of Novel Deazapurine DNMT 1 Inhibitors with In Vivo Efficacy in DLBCL” (J Med Chem, 2025)

Columns and labels:
[1] = Cmax in Sprague-Dawley rat at 10 mg/kg, po measured upto 24 hrs by LC/MS/MS analysis; type: ADME, organism-based; conditions: in vivo
[2] = tested on: RPMI-8226; assay: Antiproliferative activity against human RPMI-8226 cells assessed as inhibition of cell viability measured after 72 hrs by MTT assay; type: functional, cell-based; conditions: RPMI-8226, 72 h
[3] = tested on: DOHH-2; assay: Induction of cell cycle arrest in human DOHH-2 cells assessed as accumulation of cells at G2-M phase at 0.25 uM incubated for 24 hrs by PI staining based flow cytometry analysis (reference value: 27.8%); type: functional
[4] = tested on: DOHH-2; assay: Antiproliferative activity against human DOHH-2 cells assessed as inhibition of cell viability measured after 72 hrs by MTT assay; type: functional, cell-based; conditions: DOHH-2, 72 h
[5] = tested on: TMD8; assay: Induction of apoptosis in human TMD8 cells assessed as late apoptotic cells measured after 48 hrs by annexin-V/FITC and PI staining based flow cytometry analysis; type: functional, cell-based; conditions: dose 1-10 µM
[6] = tested on: TMD8; assay: Induction of apoptosis in human TMD8 cells assessed as early apoptotic cells at 1 uM measured after 48 hrs by annexin-V/FITC and PI staining based flow cytometry analysis (reference value: 9.15%); type: functional
[7] = Downregulation of FAS methylation level in human DOHH-2 cells at 100 nM measured after 6 days by PCR analysis relative to control; type: functional; conditions: time 6 day
[8] = Antitumor activity against human TMD8 cells harbouring […] xenografted in mouse model assessed as body weight change at 10 mg/kg, iv administered three times a week in presence of chidamide relative to control; type: functional
[9] = tested on: A549; assay: Antiproliferative activity against human A549 cells assessed as inhibition of cell viability measured after 72 hrs by MTT assay; type: functional, cell-based; conditions: A549, 72 h
[10] = Cmax in Sprague-Dawley rat at 10 mg/kg, iv measured upto 24 hrs by LC/MS/MS analysis; type: ADME, organism-based; conditions: in vivo
[11] = Antiproliferative activity against human NK-YS cells assessed as inhibition of cell viability measured after 72 hrs by MTT assay; type: functional, cell-based
[12] = tested on: TMD8; assay: Induction of apoptosis in human TMD8 cells assessed as early apoptotic cells at 10 uM measured after 48 hrs by annexin-V/FITC and PI staining based flow cytometry analysis (reference value: 9.15%); type: functional
[13] = tested on: TMD8; assay: Induction of apoptosis in human TMD8 cells assessed as early apoptotic cells at 2.5 uM measured after 48 hrs by annexin-V/FITC and PI staining based flow cytometry analysis (reference value: 9.15%); type: functional
[14] = AUC (0 to t) in Sprague-Dawley rat at 10 mg/kg, po measured upto 24 hrs by LC/MS/MS analysis; type: ADME, organism-based; conditions: Sprague-Dawley, in vivo
[15] = tested on: HeLa; assay: Antiproliferative activity against human HeLa cells assessed as inhibition of cell viability measured after 72 hrs by MTT assay; type: functional, cell-based
[16] = biological target: T1, Histone-lysine N-methyltransferase EHMT2 (Homo sapiens, UniProt Q96KQ7); assay: Inhibition of G9a (unknown origin) preincubated for 15 mins followed by substrate and [3H-SAM] addition and measured after 60 mins by microbeta analysis
T1 sequence (Q96KQ7 whole entry): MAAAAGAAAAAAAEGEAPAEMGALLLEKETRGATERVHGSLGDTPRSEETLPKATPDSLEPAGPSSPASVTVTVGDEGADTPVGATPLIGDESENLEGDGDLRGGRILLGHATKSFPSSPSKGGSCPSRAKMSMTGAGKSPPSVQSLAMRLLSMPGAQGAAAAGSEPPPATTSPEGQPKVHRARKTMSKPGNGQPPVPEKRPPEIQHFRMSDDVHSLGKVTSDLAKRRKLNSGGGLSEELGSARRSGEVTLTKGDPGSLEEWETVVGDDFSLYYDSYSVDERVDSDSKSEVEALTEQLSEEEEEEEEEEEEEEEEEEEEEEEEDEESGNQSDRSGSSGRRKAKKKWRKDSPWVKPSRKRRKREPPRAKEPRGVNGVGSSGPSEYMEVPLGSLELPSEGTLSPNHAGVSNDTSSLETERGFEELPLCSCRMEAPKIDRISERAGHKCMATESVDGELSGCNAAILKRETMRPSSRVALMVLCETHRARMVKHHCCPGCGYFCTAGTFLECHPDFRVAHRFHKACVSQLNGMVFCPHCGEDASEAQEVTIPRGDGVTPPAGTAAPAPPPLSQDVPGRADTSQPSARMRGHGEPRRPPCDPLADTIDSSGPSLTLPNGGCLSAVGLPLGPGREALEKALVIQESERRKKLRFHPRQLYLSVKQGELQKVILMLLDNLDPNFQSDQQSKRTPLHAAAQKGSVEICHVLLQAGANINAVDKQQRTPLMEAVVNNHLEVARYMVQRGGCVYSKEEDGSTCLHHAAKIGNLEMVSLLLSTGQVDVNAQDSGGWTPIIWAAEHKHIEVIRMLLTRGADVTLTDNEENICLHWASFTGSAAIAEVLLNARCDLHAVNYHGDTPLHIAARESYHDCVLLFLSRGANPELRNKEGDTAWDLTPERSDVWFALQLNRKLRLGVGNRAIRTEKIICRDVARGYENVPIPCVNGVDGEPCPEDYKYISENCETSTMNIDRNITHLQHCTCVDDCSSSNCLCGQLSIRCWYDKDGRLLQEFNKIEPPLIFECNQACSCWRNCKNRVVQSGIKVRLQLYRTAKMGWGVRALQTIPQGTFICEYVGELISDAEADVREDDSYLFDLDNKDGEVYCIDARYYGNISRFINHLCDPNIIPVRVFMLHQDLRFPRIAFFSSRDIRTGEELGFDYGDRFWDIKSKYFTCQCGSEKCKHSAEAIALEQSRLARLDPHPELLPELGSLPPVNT

[17] = Subacute toxicity in Balb/C mouse assessed as effect on liver at 30 mg/kg, iv administered three times in a week for 2 weeks; type: organism-based; conditions: in vivo, 336 h
[18] = tested on: DOHH-2; assay: Induction of apoptosis in human DOHH-2 cells assessed as late apoptotic cells at 1 uM measured after 48 hrs by annexin-V/FITC and PI staining based flow cytometry analysis (reference value: 3.66%); type: functional
[19] = tested on: TMD8; assay: Induction of apoptosis in human TMD8 cells assessed as late apoptotic cells at 2.51 uM measured after 48 hrs by annexin-V/FITC and PI staining based flow cytometry analysis (reference value: 5.13%); type: functional
[20] = tested on: DOHH-2; assay: Induction of cell cycle arrest in human DOHH-2 cells assessed as accumulation of cells at G2/M phase incubated for 24 hrs by PI staining based flow cytometry analysis; type: functional; conditions: dose 0.25-1 µM
[21] = tested on: TMD8; assay: Induction of cell cycle arrest in human TMD8 cells assessed as accumulation of cells at G2/M phase at 1.0 uM incubated for 24 hrs by PI staining based flow cytometry analysis (reference value: 20.4%); type: functional
[22] = Subacute toxicity in Balb/C mouse assessed as effect on lung at 30 mg/kg, iv administered three times in a week for 2 weeks; type: organism-based; conditions: in vivo, 336 h
[23] = tested on: TMD8; assay: Induction of apoptosis in human TMD8 cells assessed as early apoptotic cells measured after 48 hrs by annexin-V/FITC and PI staining based flow cytometry analysis; type: functional, cell-based; conditions: dose 1-10 µM

Cmax [1]: 16.7 ng/mL | IC50 [2]: 780 nM | IC50 [9]: 720 nM | Cmax [10]: 419 ng/mL | AUC(0-t) at 24 h [14]: 236 ng·h/mL | IC50 [15]: 3020 nM | IC50 [16]: > 20000 nM
SMILES: CN1CCC(Nc2nc(-c3ccnc(F)c3)nc3c2ccn3CCCN2CCCC2)CC1
Activity [3]: 29.9% | IC50 [4]: 190 nM | Activity [5]: Dose-dependent-effect | Activity [6]: 15.7% | Activity [7]: 54.2% | Activity [8]: 1.1% | IC50 [11]: 770 nM | Activity [12]: 47.5% | Activity [13]: 23% | Activity [17]: Non-toxic | Activity [18]: 13.6% | Activity [19]: 10.5% | Activity [20]: Dose-dependent-effect | Activity [21]: 38.2% | Activity [22]: Non-toxic | Activity [23]: Dose-dependent-effect
